Data from patent publication US20020076443A1, “Multiple phase cross-linked compositions and uses thereof” (priority 2000, published 2002).

Assays:
Water solubility = type: physicochemical; conditions: clinical grade dextran of about 70 kDa versus HSA
[1] = cited from earlier work

water solubility, fold lower than HSA (Water solubility): > 10 fold
Substance: dextran
water solubility [1]: about 30 mg/mL
